The test system of one experiment is Aspergillus niger. The experiment can be described thus: Inhibitory effect of Amphotericin required for antifungal activity against Aspergillus niger. The experiment is classed as functional.
Experiment [1] is described as follows: Effective concentration of Amphotericin required for hemolytic activity against 1% human erythrocytes. The experiment is classed as functional.

As a reminder, the EC50 is the concentration giving half of the maximal effect. Low values mean an effect from little substance, high ones a need for much substance. Take `CC1OC(O[C@H]2/C=C/C=C/C=C/C=C/C=C/C=C/C=C/[C@H](C)[C@@H](O)[C@@H](C)[C@H](C)OC(=O)C[C@H](O)C[C@H](O)CC[C@@H](O)[C@H](O)C[C@H](O)C[C@]3(O)C[C@H](O)[C@@H](C(=O)O)[C@H](C2)O3)C(O)C(NCc2ccc(F)cc2)C1O` (stereo partly specified): the Activity in the experiment on Aspergillus niger was above 50 µg. In addition, the EC50 in experiment [1] was 2600 nM.

Consider `CC1OC(O[C@H]2/C=C/C=C/C=C/C=C/C=C/C=C/C=C/[C@H](C)[C@@H](O)[C@@H](C)[C@H](C)OC(=O)C[C@H](O)C[C@H](O)CC[C@@H](O)[C@H](O)C[C@H](O)C[C@@]3(O)O[C@@H](C2)[C@H](C(=O)O)[C@@H](O)[C@@H]3F)C(O)C(N)C1O` (stereo partly specified), for which the Activity with Aspergillus niger was 10 µg. This compound also displayed an EC50 in experiment [1] of 1300 nM.

`C[C@@H]1[C@H](O)[C@@H](C)/C=C/C=C/C=C/C=C/C=C/C=C/C=C/[C@H](O[C@@H]2O[C@H](C)[C@@H](O)[C@H](N)[C@@H]2O)C[C@@H]2O[C@](O)(C[C@@H](O)C[C@@H](O)[C@H](O)CC[C@@H](O)C[C@@H](O)CC(=O)O[C@H]1C)C[C@H](O)[C@H]2C(=O)O` [AMPHOTERICIN B]: the Activity with Aspergillus niger came out at 10 µg. Further, a half-maximal effect in experiment [1] (EC50) was put at 1400 nM.
